Patent publication US10624946B2, “Treating liver diseases” (Mayo Foundation for Medical Education and Research, priority 2005, dated 2020)

Columns and labels:
PCK rats [1] = assay: Body, liver and kidney weight in PCK rats treated with octreotide; type: in vivo, rat
Method: (§1) Each group was divided into two subgroups. […] Each animal was injected intraperitoneally every 12 hours. […] The control groups received an equal volume of saline.

[2] = molecular target: somatostatin receptor 2 (SSTR2) (Homo sapiens, UniProt P30874); details: Froidevaux and Eberle 2002; cited from earlier work
somatostatin receptor 2 (SSTR2), sequence (P30874 whole entry, species assumed): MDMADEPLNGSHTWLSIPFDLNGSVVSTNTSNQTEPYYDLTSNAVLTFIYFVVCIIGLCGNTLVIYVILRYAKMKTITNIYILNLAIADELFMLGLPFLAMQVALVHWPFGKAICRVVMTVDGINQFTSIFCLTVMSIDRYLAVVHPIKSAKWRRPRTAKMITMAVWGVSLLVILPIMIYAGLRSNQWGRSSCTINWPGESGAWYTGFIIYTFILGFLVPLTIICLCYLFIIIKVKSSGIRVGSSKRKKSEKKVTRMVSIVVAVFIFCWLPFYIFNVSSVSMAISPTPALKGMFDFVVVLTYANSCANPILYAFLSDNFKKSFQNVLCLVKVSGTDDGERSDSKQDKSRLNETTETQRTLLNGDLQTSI

SSTR3 = SSTR3 (Homo sapiens, UniProt P32745); details: Froidevaux and Eberle 2002; cited from earlier work
SSTR3, sequence (P32745 whole entry, species assumed): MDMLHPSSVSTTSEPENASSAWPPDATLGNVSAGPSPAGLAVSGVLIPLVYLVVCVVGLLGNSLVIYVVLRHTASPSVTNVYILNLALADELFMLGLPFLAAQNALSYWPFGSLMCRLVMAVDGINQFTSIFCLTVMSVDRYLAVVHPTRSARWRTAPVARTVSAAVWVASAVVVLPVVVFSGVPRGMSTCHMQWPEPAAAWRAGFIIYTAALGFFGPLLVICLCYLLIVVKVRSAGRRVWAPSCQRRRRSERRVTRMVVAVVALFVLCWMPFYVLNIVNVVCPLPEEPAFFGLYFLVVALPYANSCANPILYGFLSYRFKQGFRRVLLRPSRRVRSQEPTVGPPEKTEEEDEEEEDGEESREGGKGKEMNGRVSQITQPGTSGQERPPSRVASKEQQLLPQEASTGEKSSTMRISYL

PCK rats [3] = assay: Hepatic and renal laboratory parameters in PCK rats treated with octreotide; details: for Alkaline Phosphatase / Aspartate Aminotransferase / Bilirubin Direct / Bilirubin Total / Blood Urea Nitrogen / Creatinine / Protein total: Octreotide (10 μg)
Method: (§2) Three week old PCK rats (n=60) were divided into five groups (three animals of each gender per treatment group). Each group was divided into two subgroups. […] Each animal was injected intraperitoneally every 12 hours. […] The control groups received an equal volume of saline.
(§3) At 4, 8, 12 and 16 weeks of age, animals were anesthetized with pentobarbital (50 mg/kg body weight, ip). Blood was collected by cardiac puncture for determination of hepatic and renal laboratory parameters and cAMP levels. Liver and kidney tissue sections (5 μm) were stained with hematoxylin-eosin and picrosirius red for analysis using light microscopy. Renal and hepatic fibrosis and cystic scores were measured using Meta-Morph software (Universal Imaging, West Chester, Pa., USA), a light microscope with a color digital camera (Nikon DXM 1200), and a Pentium IBM-compatible computer (Del OptiPlex). To measure the volume of a cyst or fibrosis, a colored threshold was applied at a level that allowed cystic tissue to be distinguished from non-cystic tissue and picrosirius red-positive stained fibrotic tissue to be distinguished from the background. The cystic and fibrotic scores were expressed as a percentage of total tissue.

[4] = system: cAMP levels in bile ducts and serum of PCK rats; assay: cAMP levels in freshly isolated bile ducts and serum of PCK rats treated with octreotide; type: in vivo, rat
Method: The concentration of cAMP was measured in freshly isolated and cultured bile ducts and in serum. Serum was diluted 1:10 before assay. Cultured bile ducts were first released from the gel by adding 0.4 mL of high-activity type XI collagenase for 45 min. at 37° C. and washing twice with medium. cAMP concentrations were determined using the Bridge-It™ cAMP designer assay (Mediomics, LLC, St. Louis, Mo.). Results were expressed as pmol per μg of DNA. The amount of DNA in a single IBDU was determined using the DNeasy Tissue Kit (QIAGEN Inc., Valencia, Calif.).
as §1

PCK rats [5] = assay: Hepatic and renal cyst volume and fibrosis score in PCK rats treated with octreotide; type: in vivo, rat
Method: as §2, §3

[6] = 100 μg/kg, 4 weeks, vs 10 μg/kg
[7] = Female PCK rats, Group I, 4 weeks of treatment, Octreotide (10 μg)
[8] = Female PCK rats, Group II, 8 weeks of treatment, Octreotide (10 μg)
[9] = Female PCK rats, Group III, 12 weeks of treatment, Octreotide (10 μg)
[10] = Female PCK rats, Group IV, 16 weeks of treatment, Octreotide (10 μg)
[11] = Female PCK rats, HD, 4 weeks of treatment, Octreotide (100 μg)
[12] = Male PCK rats, Group I, 4 weeks of treatment, Octreotide (10 μg)
[13] = Male PCK rats, Group II, 8 weeks of treatment, Octreotide (10 μg)
[14] = Male PCK rats, Group III, 12 weeks of treatment, Octreotide (10 μg)
[15] = Male PCK rats, Group IV, 16 weeks of treatment, Octreotide (10 μg)
[16] = Male PCK rats, HD, 4 weeks of treatment, Octreotide (100 μg)
[17] = Female PCK rats, Group I, 4 weeks of treatment
[18] = Female PCK rats, Group II, 8 weeks of treatment
[19] = Female PCK rats, Group III, 12 weeks of treatment
[20] = Female PCK rats, Group IV, 16 weeks of treatment
[21] = Female PCK rats, HD, 4 weeks of treatment
[22] = Male PCK rats, Group I, 4 weeks of treatment
[23] = Male PCK rats, Group II, 8 weeks of treatment
[24] = Male PCK rats, Group III, 12 weeks of treatment
[25] = Male PCK rats, Group IV, 16 weeks of treatment
[26] = Male PCK rats, HD, 4 weeks of treatment
[27] = octreotide-treated vs saline-treated PCK rats
[28] = octreotide 10 μg/kg, 4 to 16 weeks

C[C@@H](O)[C@@H]1NC(=O)[C@H](CCCCN)NC(=O)[C@@H](Cc2c[nH]c3ccccc23)NC(=O)[C@H](Cc2ccccc2)NC(=O)[C@@H](NC(=O)[C@H](N)Cc2ccccc2)CSSC[C@@H](C(=O)N[C@H](CO)[C@@H](C)O)NC1=O [Octreotide, octreotide]
effect on liver and kidney weights at higher dose (PCK rats [1]; [6]): more significant effect
Kidney weight (PCK rats [1]; [7]): 1.31 ± 0.04 % body weight
Kidney weight, decrease (↓) vs saline (PCK rats [1]; [7]): (↓11.8%)
Liver weight (PCK rats [1]; [7]): 5.34 ± 00.24 % body weight
Liver weight, decrease (↓) vs saline (PCK rats [1]; [7]): (↓10.5%)
Kidney weight (PCK rats [1]; [8]): 1.35 ± 0.06 % body weight
Kidney weight, decrease (↓) vs saline (PCK rats [1]; [8]): (↓15.0%)
Liver weight (PCK rats [1]; [8]): 5.37 ± 0.22 % body weight
Liver weight, decrease (↓) vs saline (PCK rats [1]; [8]): (↓15.8%)
Kidney weight (PCK rats [1]; [9]): 1.42 ± 0.11 % body weight
Kidney weight, decrease (↓) vs saline (PCK rats [1]; [9]): (↓17.9%)
Liver weight (PCK rats [1]; [9]): 5.43 ± 0.24 % body weight
Liver weight, decrease (↓) vs saline (PCK rats [1]; [9]): (↓18.8%)
Kidney weight (PCK rats [1]; [10]): 1.48 ± 0.13 % body weight
Kidney weight, decrease (↓) vs saline (PCK rats [1]; [10]): (↓20.6%)
Liver weight (PCK rats [1]; [10]): 5.62 ± 0.25 % body weight
Liver weight, decrease (↓) vs saline (PCK rats [1]; [10]): (↓21.9%)
Kidney weight (PCK rats [1]; [11]): 1.14 ± 0.07 % body weight
Kidney weight, decrease (↓) vs saline (PCK rats [1]; [11]): (↓18.6%)
Liver weight (PCK rats [1]; [11]): 4.7 ± 0.35 % body weight
Liver weight, decrease (↓) vs saline (PCK rats [1]; [11]): (↓19.1%)
Kidney weight (PCK rats [1]; [12]): 1.43 ± 0.04 % body weight
Kidney weight, decrease (↓) vs saline (PCK rats [1]; [12]): (↓11.2%)
Liver weight (PCK rats [1]; [12]): 4.76 ± 0.07 % body weight
Liver weight, decrease (↓) vs saline (PCK rats [1]; [12]): (↓9.0%)
Kidney weight (PCK rats [1]; [13]): 1.52 ± 0.11 % body weight
Kidney weight, decrease (↓) vs saline (PCK rats [1]; [13]): (↓14.6%)
Liver weight (PCK rats [1]; [13]): 5.24 ± 0.57 % body weight
Liver weight, decrease (↓) vs saline (PCK rats [1]; [13]): (↓12.8%)
Kidney weight (PCK rats [1]; [14]): 1.53 ± 0.15 % body weight
Kidney weight, decrease (↓) vs saline (PCK rats [1]; [14]): (↓16.8%)
Liver weight (PCK rats [1]; [14]): 5.31 ± 0.46 % body weight
Liver weight, decrease (↓) vs saline (PCK rats [1]; [14]): (↓17.2%)
Kidney weight (PCK rats [1]; [15]): 1.57 ± 0.12 % body weight
Kidney weight, decrease (↓) vs saline (PCK rats [1]; [15]): (↓18.9%)
Liver weight (PCK rats [1]; [15]): 5.64 ± 0.14 % body weight
Liver weight, decrease (↓) vs saline (PCK rats [1]; [15]): (↓19.9%)
Kidney weight (PCK rats [1]; [16]): 1.27 ± 0.13 % body weight
Kidney weight, decrease (↓) vs saline (PCK rats [1]; [16]): (↓19.3%)
Liver weight (PCK rats [1]; [16]): 4.18 ± 0.11 % body weight
Liver weight, decrease (↓) vs saline (PCK rats [1]; [16]): (↓15.1%)
liver and kidney weights vs saline (PCK rats [1]; each group studied): significantly decreased
body weight vs saline-treated (PCK rats [1]; male or female PCK rats): No differences
binding affinity [2]: high affinity
binding affinity (SSTR3): low affinity
Alkaline Phosphatase (PCK rats [3]; [17]): 238.5 ± 23.5 U/L
Aspartate Aminotransferase (PCK rats [3]; [17]): 135.0 ± 11.4 U/L
Bilirubin Direct (PCK rats [3]; [17]): 0.1 mg/dL
Bilirubin Total (PCK rats [3]; [17]): 0.2 mg/dL
Blood Urea Nitrogen (PCK rats [3]; [17]): 16.7 ± 0.3 mg/dL
Creatinine (PCK rats [3]; [17]): 0.55 ± 0.06 mg/dL
Protein total (PCK rats [3]; [17]): 5.70 ± 0.20 g/dL
Aspartate Aminotransferase (PCK rats [3]; [18]): 211.2 ± 48.4 U/L
Bilirubin Direct (PCK rats [3]; [18]): 0.1 mg/dL
Bilirubin Total (PCK rats [3]; [18]): 0.23 ± 0.03 mg/dL
Blood Urea Nitrogen (PCK rats [3]; [18]): 15.7 ± 1.2 mg/dL
Creatinine (PCK rats [3]; [18]): 0.57 ± 0.03 mg/dL
Protein total (PCK rats [3]; [18]): 5.53 ± 0.18 g/dL
Alkaline Phosphatase (PCK rats [3]; [19]): 237.0 ± 22.1 U/L
Aspartate Aminotransferase (PCK rats [3]; [19]): 207.5 ± 31.5 U/L
Bilirubin Direct (PCK rats [3]; [19]): 0.1 mg/dL
Bilirubin Total (PCK rats [3]; [19]): 0.2 mg/dL
Blood Urea Nitrogen (PCK rats [3]; [19]): 20.5 ± 0.5 mg/dL
Creatinine (PCK rats [3]; [19]): 0.6 mg/dL
Protein total (PCK rats [3]; [19]): 5.2 ± 0.17 g/dL
Alkaline Phosphatase (PCK rats [3]; [20]): 156.7 ± 4.3 U/L
Aspartate Aminotransferase (PCK rats [3]; [20]): 165.0 ± 36.46 U/L
Bilirubin Direct (PCK rats [3]; [20]): 0.1 mg/dL
Bilirubin Total (PCK rats [3]; [20]): 0.2 mg/dL
Blood Urea Nitrogen (PCK rats [3]; [20]): 20.5 ± 0.9 mg/dL
Creatinine (PCK rats [3]; [20]): 0.63 ± 0.03 mg/dL
Protein total (PCK rats [3]; [20]): 5.6 ± 0.08 g/dL
Alkaline Phosphatase (PCK rats [3]; [21]): 292.5 ± 14.3 U/L
Aspartate Aminotransferase (PCK rats [3]; [21]): 197.4 ± 25.7 U/L
Bilirubin Direct (PCK rats [3]; [21]): 0.1 mg/dL
Bilirubin Total (PCK rats [3]; [21]): 0.2 mg/dL
Blood Urea Nitrogen (PCK rats [3]; [21]): 17.0 ± 2.6 mg/dL
Creatinine (PCK rats [3]; [21]): 0.6 mg/dL
Protein total (PCK rats [3]; [21]): 5.3 ± 0.12 g/dL
Alkaline Phosphatase (PCK rats [3]; [22]): 264.5 ± 41.5 U/L
Aspartate Aminotransferase (PCK rats [3]; [22]): 212.7 ± 41.1 U/L
Bilirubin Direct (PCK rats [3]; [22]): 0.1 mg/dL
Bilirubin Total (PCK rats [3]; [22]): 0.17 ± 0.0 mg/dL
Blood Urea Nitrogen (PCK rats [3]; [22]): 16.0 ± 0.6 mg/dL
Creatinine (PCK rats [3]; [22]): 0.49 ± 0.04 mg/dL
Protein total (PCK rats [3]; [22]): 5.74 ± 0.19 g/dL
Alkaline Phosphatase (PCK rats [3]; [23]): 305.3 ± 20.4 U/L
Aspartate Aminotransferase (PCK rats [3]; [23]): 188.1 ± 20.6 U/L
Bilirubin Direct (PCK rats [3]; [23]): 0.1 mg/dL
Bilirubin Total (PCK rats [3]; [23]): 0.2 mg/dL
Blood Urea Nitrogen (PCK rats [3]; [23]): 18.3 ± 1.6 mg/dL
Creatinine (PCK rats [3]; [23]): 0.6 mg/dL
Protein total (PCK rats [3]; [23]): 5.22 ± 1.4 g/dL
Alkaline Phosphatase (PCK rats [3]; [24]): 210.5 ± 24.5 U/L
Aspartate Aminotransferase (PCK rats [3]; [24]): 181.7 ± 39.2 U/L
Bilirubin Direct (PCK rats [3]; [24]): 0.1 mg/dL
Bilirubin Total (PCK rats [3]; [24]): 0.3 mg/dL
Blood Urea Nitrogen (PCK rats [3]; [24]): 21.5 ± 1.5 mg/dL
Creatinine (PCK rats [3]; [24]): 0.6 mg/dL
Protein total (PCK rats [3]; [24]): 5.2 ± 0.03 g/dL
Alkaline Phosphatase (PCK rats [3]; [25]): 189.5 ± 18.5 U/L
Aspartate Aminotransferase (PCK rats [3]; [25]): 145.1 ± 49.51 U/L
Bilirubin Direct (PCK rats [3]; [25]): 0.1 mg/dL
Bilirubin Total (PCK rats [3]; [25]): 0.2 mg/dL
Blood Urea Nitrogen (PCK rats [3]; [25]): 20.3 ± 0.8 mg/dL
Creatinine (PCK rats [3]; [25]): 0.65 ± 0.05 mg/dL
Protein total (PCK rats [3]; [25]): 5.4 ± 0.35 g/dL
Alkaline Phosphatase (PCK rats [3]; [26]): 276.8 ± 31.2 U/L
Aspartate Aminotransferase (PCK rats [3]; [26]): 191.0 ± 24.4 U/L
Bilirubin Direct (PCK rats [3]; [26]): 0.1 mg/dL
Bilirubin Total (PCK rats [3]; [26]): 0.2 mg/dL
Blood Urea Nitrogen (PCK rats [3]; [26]): 17.1 ± 1.2 mg/dL
Creatinine (PCK rats [3]; [26]): 0.5 mg/dL
Protein total (PCK rats [3]; [26]): 5.4 ± 0.15 g/dL
hepatic or renal function (PCK rats [3]; any dose administered (10 or 100 μg/kg ip every 12 hours)): did not affect
cAMP concentration in bile duct and serum at higher dose [4, 6]: to an even greater extent
cAMP levels in freshly isolated bile ducts [4, 27]: lowered
cAMP levels in serum [4, 27]: lowered
cystic volume and fibrosis score in liver and kidney at higher dose (PCK rats [5]; higher dose (100 μg/kg, 4 weeks)): even more significant reduction
hepatic fibrosis (PCK rats [5]; octreotide 10 μg/kg): significant reduction
renal fibrosis (PCK rats [5]; octreotide 10 μg/kg): significant reduction
cystic volume in kidney (PCK rats [5]; [28]): decreased consistently and progressively
cystic volume in liver (PCK rats [5]; [28]): decreased consistently and progressively
